# Where two headings read alike, the source gives them in different places.
# Assays:
# Type in all cases: cell-based
# [1] = biological target: T1, protein kinases (human kinome) (Homo sapiens, UniProt O14976)
# T1 sequence (O14976 1-1311): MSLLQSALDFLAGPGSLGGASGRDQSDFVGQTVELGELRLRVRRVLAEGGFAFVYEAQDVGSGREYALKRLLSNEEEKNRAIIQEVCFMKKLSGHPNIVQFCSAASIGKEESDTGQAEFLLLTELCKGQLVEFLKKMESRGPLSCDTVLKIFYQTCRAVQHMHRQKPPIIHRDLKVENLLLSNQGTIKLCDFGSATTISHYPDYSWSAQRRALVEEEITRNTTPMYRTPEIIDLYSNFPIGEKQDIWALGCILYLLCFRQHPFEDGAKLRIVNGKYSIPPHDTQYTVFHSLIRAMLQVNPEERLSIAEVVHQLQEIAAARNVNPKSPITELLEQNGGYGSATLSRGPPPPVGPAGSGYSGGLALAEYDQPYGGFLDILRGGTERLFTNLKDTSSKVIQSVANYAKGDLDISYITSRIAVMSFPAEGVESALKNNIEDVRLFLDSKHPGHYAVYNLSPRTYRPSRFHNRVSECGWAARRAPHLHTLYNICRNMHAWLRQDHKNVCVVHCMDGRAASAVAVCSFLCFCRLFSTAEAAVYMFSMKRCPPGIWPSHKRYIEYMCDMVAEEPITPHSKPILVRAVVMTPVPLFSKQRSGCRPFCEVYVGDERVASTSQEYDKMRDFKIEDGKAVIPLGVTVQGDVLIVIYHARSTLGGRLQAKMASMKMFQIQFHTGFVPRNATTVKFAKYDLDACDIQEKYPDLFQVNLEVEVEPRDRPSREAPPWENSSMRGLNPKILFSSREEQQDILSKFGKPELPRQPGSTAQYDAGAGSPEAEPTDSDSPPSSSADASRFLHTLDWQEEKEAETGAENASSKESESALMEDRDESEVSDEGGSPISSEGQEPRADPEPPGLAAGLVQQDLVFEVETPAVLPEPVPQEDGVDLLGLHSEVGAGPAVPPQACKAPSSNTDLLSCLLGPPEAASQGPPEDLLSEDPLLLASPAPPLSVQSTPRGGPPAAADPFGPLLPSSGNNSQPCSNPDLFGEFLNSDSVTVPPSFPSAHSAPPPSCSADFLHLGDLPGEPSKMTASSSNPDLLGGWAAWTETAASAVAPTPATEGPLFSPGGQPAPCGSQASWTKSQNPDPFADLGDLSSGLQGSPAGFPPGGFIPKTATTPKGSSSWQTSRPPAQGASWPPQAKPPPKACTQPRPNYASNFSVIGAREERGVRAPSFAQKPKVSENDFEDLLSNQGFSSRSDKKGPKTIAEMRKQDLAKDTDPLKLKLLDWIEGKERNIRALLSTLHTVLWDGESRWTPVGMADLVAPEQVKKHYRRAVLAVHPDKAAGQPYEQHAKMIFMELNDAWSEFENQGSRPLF
# [2] = biological target: protein kinases (human kinome) (Homo sapiens, UniProt P53671); settings: for logFC LIMK2: LIMK2 (P53671), down; for logFC of LIMK2: LIMK2 P53671
# [3] = biological target: protein kinases (human kinome) (Homo sapiens, UniProt P11802)
# [4] = biological target: protein kinases (human kinome) (Homo sapiens, UniProt P51451); settings: for logFC BLK: BLK (P51451), direction down; for logFC of BLK (P51451): down
# [5] = GAK (O14976), experiment wp195, down
# [6] = GAK, accession O14976, experiment wp195, direction of change down
# [7] = GAK (O14976), direction down, experiment wp117
# [8] = GAK (O14976), experiment wp168, down
# Sequence of protein kinases (human kinome) (Homo sapiens, UniProt P51451) (P51451 whole entry): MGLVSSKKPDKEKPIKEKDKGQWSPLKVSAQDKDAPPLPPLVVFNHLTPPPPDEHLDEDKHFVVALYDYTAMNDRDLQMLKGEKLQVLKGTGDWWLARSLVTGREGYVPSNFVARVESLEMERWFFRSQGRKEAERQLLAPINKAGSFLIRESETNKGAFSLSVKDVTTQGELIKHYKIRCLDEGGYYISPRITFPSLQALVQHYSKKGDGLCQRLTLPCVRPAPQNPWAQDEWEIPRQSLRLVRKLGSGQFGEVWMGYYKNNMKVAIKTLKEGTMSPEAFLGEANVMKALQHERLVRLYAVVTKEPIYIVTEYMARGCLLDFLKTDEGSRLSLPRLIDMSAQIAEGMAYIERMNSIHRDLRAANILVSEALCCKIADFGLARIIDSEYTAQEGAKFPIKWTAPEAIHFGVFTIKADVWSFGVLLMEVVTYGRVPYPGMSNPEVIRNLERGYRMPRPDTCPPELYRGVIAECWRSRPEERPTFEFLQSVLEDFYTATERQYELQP
# Sequence of protein kinases (human kinome) (Homo sapiens, UniProt P53671) (P53671 whole entry): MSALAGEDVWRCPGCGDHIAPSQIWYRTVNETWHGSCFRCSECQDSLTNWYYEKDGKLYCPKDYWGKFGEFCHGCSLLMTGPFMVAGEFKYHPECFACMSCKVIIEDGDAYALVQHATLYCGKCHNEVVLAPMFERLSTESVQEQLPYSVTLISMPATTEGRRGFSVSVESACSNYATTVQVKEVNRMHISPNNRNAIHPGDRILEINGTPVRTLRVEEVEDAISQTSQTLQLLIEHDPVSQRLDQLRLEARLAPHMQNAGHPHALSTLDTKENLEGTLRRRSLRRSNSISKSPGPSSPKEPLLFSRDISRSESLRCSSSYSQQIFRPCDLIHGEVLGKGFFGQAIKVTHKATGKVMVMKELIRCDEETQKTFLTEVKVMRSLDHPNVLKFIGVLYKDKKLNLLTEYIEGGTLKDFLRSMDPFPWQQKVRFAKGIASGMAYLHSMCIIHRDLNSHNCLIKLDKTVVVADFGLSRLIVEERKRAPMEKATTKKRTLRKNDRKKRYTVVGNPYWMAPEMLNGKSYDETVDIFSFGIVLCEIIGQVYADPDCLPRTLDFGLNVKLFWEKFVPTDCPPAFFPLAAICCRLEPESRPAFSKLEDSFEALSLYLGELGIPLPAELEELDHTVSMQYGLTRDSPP
# Sequence of protein kinases (human kinome) (Homo sapiens, UniProt P11802) (P11802 whole entry): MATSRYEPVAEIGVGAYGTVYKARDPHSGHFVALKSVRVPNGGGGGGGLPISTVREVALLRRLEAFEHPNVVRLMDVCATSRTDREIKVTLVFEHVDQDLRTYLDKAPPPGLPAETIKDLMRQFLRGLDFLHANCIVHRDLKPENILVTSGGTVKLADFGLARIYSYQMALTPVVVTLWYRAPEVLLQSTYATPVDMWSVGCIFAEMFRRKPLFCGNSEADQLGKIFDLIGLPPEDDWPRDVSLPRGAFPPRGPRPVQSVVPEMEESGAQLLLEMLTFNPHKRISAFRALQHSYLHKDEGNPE
smiles,measurement,setting,value
O=C(COc1cccc2c1C(=O)N(C1CCC(=O)NC1=O)C2=O)NCCCCCCCN1CCc2cc(Nc3ncc(C4CC4)c(NCCCNC(=O)C4CCC4)n3)ccc2C1 (stereo not shown) [BSJ.04.178],logFC of GAK (O14976),"[1]; Experiment wp134, down",−2.402
same,logFC GAK,"[1]; GAK (O14976), direction down, experiment wp134",−2.402
Cc1ncsc1-c1ccc([C@H](C)NC(=O)[C@@H]2C[C@@H](O)CN2C(=O)[C@@H](NC(=O)CCCCCN2CCc3cc(Nc4ncc(C5CC5)c(NCCCNC(=O)C5CCC5)n4)ccc3C2)C(C)(C)C)cc1 [BSJ.05.026],logFC GAK,[1]; [5],−0.5819
same,logFC GAK,[1]; [6],−0.6819
"CS(=O)(=O)Nc1cccc(-c2csc3cnc(Nc4ccc(N5CCN(CCCCCOc6cccc7c6C(=O)N(C6CCC(=O)NC6=O)C7=O)CC5)cc4)nc23)c1 (stereo not shown) [DB0614, N-(3-(2-((4-(4-(5-((2-(2,6-Dioxopiperidin-3-yl)-1,3-dioxoisoindolin-4-yl)oxy)pentyl)piperazin-1-yl)phenyl)amino)thieno[3,2-d]pyrimidin-7-yl)phenyl)methanesulfonamide]",logFC LIMK2,[2]; experiment wp045,−0.437
same,logFC of LIMK2,[2]; experiment wp045,−0.437
same,logFC of GAK (O14976),"[1]; Experiment wp045, down",−0.3305
same,logFC of GAK (O14976),"[1]; Experiment wp117, down",−0.4196
same,logFC GAK,"[1]; GAK (O14976), direction down, experiment wp045",−0.3305
same,logFC GAK,[1]; [7],−0.4196
same,logFC CDK4 (P11802),[3]; experiment wp045,−1.539
same,logFC CDK4 (P11802),[3]; experiment wp117,−1.539
Cc1ccc(NC(=O)c2cccc(C(F)(F)F)c2)cc1N1Cc2cnc(Nc3ccc(N4CCN(CCCOc5cccc6c5C(=O)N(C5CCC(=O)NC5=O)C6=O)CC4)nc3)nc2N(C)C1=O (stereo not shown) [DB0662],logFC GAK,"[1]; GAK (O14976), direction down, experiment wp168",−0.4373
same,logFC GAK,[1]; [8],−0.4373
same,logFC BLK,[4]; experiment wp168,−1.652
same,logFC of BLK (P51451),[4]; Experiment wp168,−1.652
same,logFC CDK4 (P11802),[3]; experiment wp168,−0.9883
Cc1ccc(NC(=O)c2cccc(C(F)(F)F)c2)cc1N1Cc2cnc(Nc3ccc(N4CCN(CCCCC(=O)N[C@H](C(=O)N5C[C@H](O)C[C@H]5C(=O)N[C@@H](C)c5ccc(-c6scnc6C)cc5)C(C)(C)C)CC4)nc3)nc2N(C)C1=O [DB1113],logFC GAK,[1]; [8],−1.029
same,logFC GAK,"[1]; GAK, accession O14976, experiment wp168, direction of change down",−1.029
same,logFC BLK,[4]; experiment wp168,−1.32
same,logFC of BLK (P51451),[4]; Experiment wp168,−1.32
same,logFC CDK4 (P11802),[3]; experiment wp168,−0.4373
Cc1ncsc1-c1ccc([C@H](C)NC(=O)[C@@H]2C[C@@H](O)CN2C(=O)[C@@H](NC(=O)CCOCCOCCN2CCN(c3ccc(Nc4ncc(Cl)c(Nc5ccccc5S(=O)(=O)C(C)C)n4)cc3)CC2)C(C)(C)C)cc1 [FMF.06.098.1],logFC LIMK2,[2]; experiment wp108,−0.8226
same,logFC LIMK2,[2]; experiment wp114,−1.629
same,logFC LIMK2,[2]; experiment wp131,−1.077
same,logFC of LIMK2,[2]; experiment wp108,−0.8226
same,logFC of LIMK2,[2]; experiment wp114,−1.629
same,logFC of LIMK2,[2]; experiment wp131,−1.077
same,logFC of GAK (O14976),"[1]; Experiment wp108, down",−0.4156
same,logFC of GAK (O14976),"[1]; Experiment wp131, down",−0.3469
same,logFC GAK,"[1]; GAK (O14976), direction down, experiment wp108",−0.4156
same,logFC GAK,"[1]; GAK (O14976), direction down, experiment wp131",−0.3469
same,logFC CDK4 (P11802),[3]; Experiment wp108,−0.8731
same,logFC CDK4 (P11802),[3]; experiment wp114,−0.3781
same,logFC CDK4 (P11802),[3]; experiment wp131,−1.029
Cc1cnc(Nc2ccc(N3CCN(CCCCCCC(=O)N[C@H](C(=O)N4C[C@H](O)C[C@H]4C(=O)N[C@@H](C)c4ccc(-c5scnc5C)cc4)C(C)(C)C)CC3)cc2)nc1Nc1cccc(S(=O)(=O)NC(C)(C)C)c1 [JWG.123],logFC GAK,[1]; [5],−0.5246
same,logFC GAK,[1]; [6],−0.5246
CCc1cnn2c(N(Cc3ccc(N)nc3)C(=O)CCOCCOCCOCCNC(=O)CNc3cccc4c3C(=O)N(C3CCC(=O)NC3=O)C4=O)cc(N3CCCC[C@H]3CCO)nc12 (stereo partly shown) [MFH.5.115.2],logFC CDK4 (P11802),[3]; experiment wp076,−0.7246
O=C1CCC(N2C(=O)c3cccc(NCCCCCCCCN4CCC(NC(=O)c5[nH]ncc5NC(=O)c5c(Cl)cccc5Cl)CC4)c3C2=O)C(=O)N1 (stereo not shown) [MFH.5.126.1],logFC CDK4 (P11802),[3]; experiment wp076,−0.608
CS(=O)(=O)Nc1cccc(-c2csc3cnc(Nc4ccc(N5CCN(CCOCCOCCOc6cccc7c6C(=O)N(C6CCC(=O)NC6=O)C7=O)CC5)cc4)nc23)c1 (stereo not shown) [RSS0628],logFC LIMK2,[2]; experiment wp045,−0.7182
same,logFC of LIMK2,[2]; experiment wp045,−0.7182
same,logFC CDK4 (P11802),[3]; experiment wp045,−1.422
"Cc1ncsc1-c1ccc([C@H](C)NC(=O)[C@@H]2C[C@@H](O)CN2C(=O)[C@@H](NC(=O)CCCCCN2CCN(c3ccc(Nc4ncc5scc(-c6cccc(NS(C)(=O)=O)c6)c5n4)cc3)CC2)C(C)(C)C)cc1 [RSS0680, (2S,4R)-1-((S)-3,3-Dimethyl-2-(6-(4-(4-((7-(3-(methylsulfonamido)phenyl)thieno[3,2-d]pyrimidin-2-yl)amino)phenyl)piperazin-1-yl)hexanamido)butanoyl)-4-hydroxy-N—((S)-1-(4-(4-methylthiazol-5yl)phenyl)ethyl)pyrrolidine-2-carboxamide]",logFC LIMK2,[2]; experiment wp080,−0.8809
same,logFC LIMK2,[2]; experiment wp117,−1.109
same,logFC of LIMK2,[2]; experiment wp080,−0.8809
same,logFC of LIMK2,[2]; experiment wp117,−1.109
same,logFC of GAK (O14976),"[1]; Experiment wp080, down",−0.7773
same,logFC of GAK (O14976),"[1]; Experiment wp117, down",−0.6853
same,logFC GAK,"[1]; GAK (O14976), direction down, experiment wp080",−0.7773
same,logFC GAK,[1]; [7],−0.6853
same,logFC CDK4 (P11802),[3]; experiment wp080,−1.724
same,logFC CDK4 (P11802),[3]; experiment wp117,−1.679
Nc1ncnc2c1c(-c1ccc(Oc3ccccc3)cc1)nn2[C@H]1CC[C@H](N2CCN(CCOCCNC(=O)CNc3cccc4c3C(=O)N(C3CCC(=O)NC3=O)C4=O)CC2)CC1 (stereo partly shown) [SB1.G.181],logFC of BLK,"[4]; BLK P51451, experiment wp071",−2.337
same,logFC of BLK (P51451),[4]; Experiment wp071,−2.337
CC(C)S(=O)(=O)c1ccccc1Nc1nc(Nc2ccc(N3CCN(CCOCCOCCC(=O)NCCNc4cccc5c4CN(C4CCC(=O)NC4=O)C5=O)CC3)cc2)ncc1Cl (stereo not shown) [TL13.97],logFC LIMK2,[2]; experiment wp137,−0.9054
same,logFC of LIMK2,[2]; experiment wp137,−0.9054
same,logFC BLK,[4]; experiment wp137,−2.219
same,logFC of BLK (P51451),[4]; Experiment wp137,−2.219
same,logFC CDK4 (P11802),[3]; experiment wp137,−0.9676
Cc1ccc(C(=O)Nc2ccc(CN3CCN(CCOCCOCCNC(=O)CNc4cccc5c4C(=O)N(C4CCC(=O)NC4=O)C5=O)CC3)c(C(F)(F)F)c2)cc1C#Cc1cnc2cccnn12 (stereo not shown) [TL13.150],logFC of GAK (O14976),"[1]; Experiment wp081, down",−1.014
same,logFC GAK,"[1]; GAK (O14976), direction down, experiment wp081",−1.014
same,logFC BLK,[4]; experiment wp081,−1.435
same,logFC of BLK (P51451),[4]; Experiment wp081,−1.435
Nc1ncc(-c2ccc(S(=O)(=O)N(CCCNC(=O)CCOCCOCCOCCOCCOCCNc3cccc4c3C(=O)N(C3CCC(=O)NC3=O)C4=O)C3CC3)cc2)cc1-c1ccc2c(c1)CCNC2=O (stereo not shown) [WH.10417.099],logFC LIMK2,[2]; experiment wp103,−0.5747
same,logFC LIMK2,[2]; experiment wp107,−0.3744
same,logFC of LIMK2,[2]; experiment wp103,−0.5747
same,logFC of LIMK2,[2]; experiment wp107,−0.3744
